The target of series [1] is T1, CYP1A2 (Homo sapiens, UniProt P05177).
T1 sequence (P05177 1-516): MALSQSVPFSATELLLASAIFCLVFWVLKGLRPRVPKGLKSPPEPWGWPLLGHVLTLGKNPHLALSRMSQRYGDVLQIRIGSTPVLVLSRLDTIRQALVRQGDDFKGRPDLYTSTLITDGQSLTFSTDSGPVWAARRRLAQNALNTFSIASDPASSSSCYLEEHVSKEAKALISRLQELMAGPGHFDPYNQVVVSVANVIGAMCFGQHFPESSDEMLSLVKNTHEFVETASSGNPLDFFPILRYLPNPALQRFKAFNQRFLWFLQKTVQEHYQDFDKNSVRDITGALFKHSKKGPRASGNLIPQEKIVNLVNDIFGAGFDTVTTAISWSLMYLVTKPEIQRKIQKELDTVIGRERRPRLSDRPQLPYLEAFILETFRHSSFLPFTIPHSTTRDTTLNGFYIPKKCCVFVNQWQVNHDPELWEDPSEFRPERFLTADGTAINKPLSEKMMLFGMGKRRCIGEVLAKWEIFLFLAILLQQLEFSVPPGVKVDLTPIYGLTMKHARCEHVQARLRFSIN
The series can be described thus: CYP1A2 fluorometric microtiter plate inhibition assay.

Series [2] concerns the target T2, CYP2D6 (Homo sapiens, UniProt P10635). The series can be described thus: CYP2D6 fluorometric microtiter plate inhibition assay.
Series [3] concerns CYP1A2, CYP2C9, CYP2D6, CYP3A4. The series can be described thus: CYP isozyme bioassays, results stated across several isozymes. Conditions: human, pH 7.5.
Series [4] concerns the target T3, CYP3A4 (Homo sapiens, UniProt P08684). The series can be described thus: CYP3A4 fluorometric microtiter plate inhibition assay.
Series [5] addresses T4, CYP2C9 (Homo sapiens, UniProt P11712). The series can be described thus: CYP2C9 fluorometric microtiter plate inhibition assay.
Series [6] has as its system CYP 2C9. Conditions: read-out: Literature IC50, CYP 2C9; published limits; cited from earlier work.
For series [7], the system named is CYP 2D6. Conditions: read-out: Literature IC50, CYP 2D6; published limits; cited from earlier work.
For series [8], the system named is CYP 1A2. Conditions: cited from earlier work.
The target of series [9] is T2, CYP2D6. Conditions: recombinant enzyme.
Series [10] addresses T3, CYP3A4. Conditions: recombinant enzyme.
Series [11] has as its target T4, CYP2C9. Conditions: recombinant enzyme.
The target in series [12] is T1, CYP1A2. Conditions: recombinant enzyme.
Series [13] has as its system CYP3A4. Conditions: cited from earlier work.
The subject of series [14] is CYP2C9, CYP3A4. In words: in vitro. Conditions: human, pH 7.5.

Like-named read-outs stand apart in the source and are kept apart here. Some results are limits rather than exact numbers.

T4 sequence (P11712 whole entry): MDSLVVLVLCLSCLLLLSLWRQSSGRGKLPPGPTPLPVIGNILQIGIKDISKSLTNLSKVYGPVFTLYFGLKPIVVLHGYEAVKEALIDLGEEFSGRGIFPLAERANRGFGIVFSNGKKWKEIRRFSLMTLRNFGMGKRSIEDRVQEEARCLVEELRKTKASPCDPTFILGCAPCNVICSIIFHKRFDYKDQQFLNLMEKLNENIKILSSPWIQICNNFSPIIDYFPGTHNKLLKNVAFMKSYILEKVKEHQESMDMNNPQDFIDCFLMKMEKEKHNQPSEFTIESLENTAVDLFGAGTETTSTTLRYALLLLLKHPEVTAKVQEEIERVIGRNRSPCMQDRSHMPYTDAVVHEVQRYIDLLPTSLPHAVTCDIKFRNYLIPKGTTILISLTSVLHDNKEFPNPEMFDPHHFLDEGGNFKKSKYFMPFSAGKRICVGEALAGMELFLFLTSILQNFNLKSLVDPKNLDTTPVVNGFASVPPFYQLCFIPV
T2 sequence (P10635 whole entry): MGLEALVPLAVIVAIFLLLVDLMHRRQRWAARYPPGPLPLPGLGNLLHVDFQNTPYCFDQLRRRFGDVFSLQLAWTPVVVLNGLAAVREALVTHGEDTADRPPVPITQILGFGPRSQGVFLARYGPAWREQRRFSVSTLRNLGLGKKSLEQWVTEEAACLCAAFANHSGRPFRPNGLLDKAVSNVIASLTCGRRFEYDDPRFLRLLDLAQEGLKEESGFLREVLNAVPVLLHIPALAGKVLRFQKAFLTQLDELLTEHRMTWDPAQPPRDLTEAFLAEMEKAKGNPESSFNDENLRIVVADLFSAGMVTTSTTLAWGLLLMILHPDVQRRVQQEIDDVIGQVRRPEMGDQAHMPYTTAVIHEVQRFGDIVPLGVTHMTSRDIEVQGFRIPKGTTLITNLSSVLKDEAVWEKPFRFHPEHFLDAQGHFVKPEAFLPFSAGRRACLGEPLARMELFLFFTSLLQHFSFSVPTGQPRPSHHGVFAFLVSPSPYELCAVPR
T3 sequence (P08684 whole entry): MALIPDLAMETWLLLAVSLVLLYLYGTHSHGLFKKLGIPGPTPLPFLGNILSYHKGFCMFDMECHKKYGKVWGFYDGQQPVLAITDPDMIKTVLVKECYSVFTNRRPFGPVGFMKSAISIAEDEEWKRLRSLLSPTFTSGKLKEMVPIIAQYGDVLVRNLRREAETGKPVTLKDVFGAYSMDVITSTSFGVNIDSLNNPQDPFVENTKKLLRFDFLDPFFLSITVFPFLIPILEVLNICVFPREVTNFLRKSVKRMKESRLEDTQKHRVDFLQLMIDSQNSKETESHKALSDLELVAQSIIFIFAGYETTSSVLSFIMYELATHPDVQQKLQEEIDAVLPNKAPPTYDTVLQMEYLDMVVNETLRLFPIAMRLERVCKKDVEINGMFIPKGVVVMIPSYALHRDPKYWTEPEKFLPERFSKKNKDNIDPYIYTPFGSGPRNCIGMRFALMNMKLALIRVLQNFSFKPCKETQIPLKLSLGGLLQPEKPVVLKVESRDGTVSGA

Regarding `O=C(/C=C/c1ccc(O)c(O)c1)O[C@H](C(=O)O)[C@](O)(Cc1ccc(O)c(O)c1)C(=O)O` [Fukinolic acid, fukinolic acid], the IC50 (usually the concentration that gives 50% inhibition) was 1.8 µM in series [1]; 5.4 µM in series [2]; 1.8 to 12.6 µM in [3]; 7.2 µM in series [4]; 7.1 µM in [5].
With `Nc1ccc(S(=O)(=O)Nc2ccnn2-c2ccccc2)cc1` [Sulfaphenazole, sulfaphenazole], the IC50 in [6] was […].
On to `C=C[C@H]1C[N@@]2CC[C@H]1C[C@@H]2[C@@H](O)c1ccnc2ccc(OC)cc12` [Quindine, quinidine], for which the IC50 in [7] was […].
For `Oc1ccc(/C=C/c2cc(O)cc(O)c2)cc1` [resveratrol], the IC50 in [8] (read-out: Inhibitory IC50 in CYP 1A2) is 1.89 µM.
As to `CC(=O)O[C@@H]1C[C@@]23C[C@@]24CC[C@H](O[C@@H]2OC[C@@H](O)[C@H](O)[C@H]2O)C(C)(C)[C@@H]4CC[C@H]3[C@]2(C)C[C@@H]3O[C@@]4(C[C@@H](C)[C@@H]3[C@@]12C)OC[C@@]1(C)O[C@@H]41` [Deoyxactein, 23-epi-26-deoxyactein], the IC50 is 100 µM in series [9], 28.7 µM in series [10], 25.9 µM in [11] and more than 100 µM in series [12].
Consider `CC(=O)O[C@@H]1C[C@@]23C[C@@]24CC[C@H](O[C@@H]2OC[C@@H](O)[C@H](O)[C@H]2O)C(C)(C)[C@@H]4CC[C@H]3[C@]2(C)C[C@@H]3O[C@]4(C[C@@H](C)[C@@H]3[C@@]12C)OC[C@@]1(C)O[C@@H]41` [26-deoxyactein], for which the IC50 in series [13] (read-out: IC50 for CYP3A4 inhibition, Tsukamoto et al.) is 100 µM.
Take `CC(=O)O[C@@H]1C[C@@]23C[C@@]24CC[C@H](O[C@@H]2OC[C@@H](O)[C@H](O)[C@H]2O)C(C)(C)[C@@H]4CC[C@H]3[C@]2(C)C[C@@H]3O[C@]4(C[C@@H](C)[C@@H]3[C@@]12C)O[C@H](O)[C@@]1(C)O[C@@H]41` [Actein, actein]: the 50% inhibitory concentration (IC50) is more than 100 µM in [1]; 51.1 µM in series [2]; 16.9 to 33.8 µM in series [14]; 35.2 µM in series [4]; 25 µM in series [5].
In the case of `COc1ccc(/C=C/C(=O)O[C@H](C(=O)O)[C@](O)(Cc2ccc(O)c(O)c2)C(=O)O)cc1O` [CAB, Cimicifugic acid B], the IC50 is 7.35 µM in [1]; 12.6 µM in series [2]; 1.8 to 12.6 µM in [3]; 9.8 µM in series [4]; 12.5 µM in series [5].
With `Cc1nc2c([nH]1)c(=O)n(C)c(=O)n2Cc1ccco1` [Furafylline, furafylline], the IC50 in [8] (read-out: Literature IC50, CYP 1A2, published limits) is […].
As for `CC(=O)N1CCN(c2ccc(OCC3COC(Cn4ccnc4)(c4ccc(Cl)cc4Cl)O3)cc2)CC1` (stereo not drawn) [Ketoconazole, ketoconazole], the IC50 in series [13] (read-out: Literature IC50, CYP 3A4, published limits) was […].
On to `COc1cc(/C=C/C(=O)O[C@H](C(=O)O)[C@](O)(Cc2ccc(O)c(O)c2)C(=O)O)ccc1O` [CAA, Cimicifugic acid A], for which the IC50 in series [1] is 7.2 µM; in series [2] it was 9 µM; in series [3] it was 1.8 to 12.6 µM; in [4] it was 9.7 µM; in series [5], 8.3 µM.

Source of the values: paper PMC3761975 (Current drug safety, 2010).
